Measurements as given in EP4610269A1, “UROKINASE PLASMINOGEN ACTIVATOR SURFACE RECEPTOR (UPAR) LIGANDS FOR DIAGNOSTIC OR THERAPEUTIC USE” (3B Pharmaceuticals GmbH, priority 2024, dated 2025).
*1 amine or outer side, *2 acyl side, *3 side chain or, on linkers, in order; H or OH if unused. Where a SMILES comes first, the peptide text is derived from it. Bridges are numbered along the chain shown (N, C = ends). [ ]: non-standard residue; d: D form. The star is where a group is joined. Pro(trans-4-NH2) = O=C([C@@H]1C[C@@H](N[*:3])CN1[*:1])[*:2]; DOTA = O=C(O)CN1CCN(CC(=O)O)CCN(CC(=O)*)CCN(CC(=O)O)CC1; Phe(4-CONH2) = NC(=O)c1ccc(C[C@H](N)C(=O)O)cc1; Pro(cis-4-F) = O=C(O)[C@@H]1C[C@H](F)CN1; Hyp = O=C(O)[C@@H]1C[C@@H](O)CN1; Pentanoyl(4-Me) = CC(C)CCC(=O)*; Cit = NC(=O)NCCC[C@H](N)C(=O)O; Butoxycarbonyl = CCCCOC(=O)*; Orn = NCCC[C@H](N)C(=O)O; Nva = CCC[C@H](N)C(=O)O; Pentanoyl = CCCCC(=O)*

Assays:
Format in all cases: in vitro ADME
[1] = biological target: T1, Recombinant soluble human NEP (Homo sapiens, UniProt P08473); test: Proteolytic stability assay against NEP; details: recombinant soluble human NEP, human NEP 100 ng/mL, compound 10 µM, 37°C, LC-MS quantification, read-out: % intact compound remaining after 24h incubation
T1 construct: Recombinant soluble human NEP; purchased BioTechne, Wiesbaden, Germany
T1 sequence (P08473 52-750 limits assumed): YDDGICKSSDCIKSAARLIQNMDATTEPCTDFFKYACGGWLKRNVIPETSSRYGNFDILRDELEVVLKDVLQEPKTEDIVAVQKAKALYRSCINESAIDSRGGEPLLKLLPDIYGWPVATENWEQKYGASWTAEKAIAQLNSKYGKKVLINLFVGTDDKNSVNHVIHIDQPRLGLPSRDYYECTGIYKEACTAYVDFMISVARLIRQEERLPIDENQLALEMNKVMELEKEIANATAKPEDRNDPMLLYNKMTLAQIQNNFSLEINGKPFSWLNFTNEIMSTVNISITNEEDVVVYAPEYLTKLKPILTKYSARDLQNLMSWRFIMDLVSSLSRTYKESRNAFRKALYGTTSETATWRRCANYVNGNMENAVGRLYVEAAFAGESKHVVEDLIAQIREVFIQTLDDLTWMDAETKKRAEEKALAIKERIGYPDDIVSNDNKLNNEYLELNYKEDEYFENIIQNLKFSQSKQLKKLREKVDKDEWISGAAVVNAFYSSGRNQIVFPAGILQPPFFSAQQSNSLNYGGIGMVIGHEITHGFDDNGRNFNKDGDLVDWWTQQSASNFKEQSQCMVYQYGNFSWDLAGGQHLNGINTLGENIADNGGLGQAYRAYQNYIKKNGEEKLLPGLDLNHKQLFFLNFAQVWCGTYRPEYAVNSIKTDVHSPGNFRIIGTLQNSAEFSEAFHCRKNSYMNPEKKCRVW
Method: To assess the stability of compounds against NEP, the compounds were subjected to an in vitro assay based on the protocol described by Edelson et al. (Edelson, Makhlina et al. 2013).
Recombinant soluble human NEP (BioTechne, Wiesbaden, Germany) at a concentration of 100 ng/mL was mixed with the compound (10 µM) and a stable internal standard (10 µM) and incubated at 37°C. After several time points, samples were taken and analyzed with LC-MS.
The determination of the analyte in the clean sample solutions was performed on an Agilent 1290 UHPLC system coupled to an Agilent 6530 Q-TOF mass spectrometer. The chromatographic separation was carried out on a Phenomenex BioZen XB-C18 HPLC column (50 × 2 mm, 1.7 µm particle size) with gradient elution using a mixture of 0.1% formic acid in water as eluent A and acetonitrile as eluent B (2% B to 41% in 7 min, 800 µl/min, 40°C). Mass spectrometric detection was performed in positive ion ESI mode by scanning the mass range from m/z 50 to 3000 with a sampling rate of 2 / sec.
From the mass spectrometric raw data the ion currents for the double or triple charged monoisotopic signal was extracted for both, the compound and the internal standard.
(§1) Quantitation was performed by external matrix calibration with internal standard using the integrated analyte signals.
The activity of NEP was examined using a commercially available chromogenic substrate of NEP.
The result is stated as "% intact compound remaining after 24 h incubation" and means that from the amount of material at the start of the experiment the stated percentage is detected as unchanged material at the end of the experiment by LC-MS quantification. Since all compounds are more than 50% intact after 24 h they are considered as stable enough for diagnostic and therapeutic applications. Table 14: Results of the NEP stability assay

[2] = Plasma stability assay (mouse plasma); details: mouse plasma (sodium citrate 3.7%), 37°C, LC-MS quantification, read-out: % intact compound remaining after 6h incubation Mouse plasma
How it was run: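 Compound from a 0.5 mM DMSO stock was spiked into sodium-citrate human or mouse plasma and incubated at 37°C for 0 and 6 h in duplicate. After protein precipitation with internal standard, intact compound was quantified by UHPLC-Q-TOF MS (positive ESI) against matrix calibration, reported as % remaining after 6 h.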

[3] = Plasma stability assay (human plasma); details: human plasma (sodium citrate 3.7%), 37°C, LC-MS quantification, read-out: % intact compound remaining after 6h incubation Human plasma
Method: In order to determine the stability of selected compounds of the invention in human and mouse plasma, a plasma stability assay was carried out. Such plasma stability assay measures degradation of compounds of the present invention in blood plasma. This is an important characteristic of a compound as compounds, with the exception of pro-drugs, which rapidly degrade in plasma, generally show poor in vivo efficacy. […] The stability is sufficient for the diagnostic, therapeutic and theragnostic use of these compounds according to the present invention.
The plasma stability samples were prepared by spiking 50 µl plasma aliquots (all sodium citrate 3.7%) with 1 µl of a 0.5 mM compound stock solution in DMSO. After vortexing the samples were incubated in a Thermomixer at 37°C for 0 and 6 hours. After incubation the samples were stored on ice until further treatment. All samples were prepared in duplicates.
A suitable internal standard was added to each sample (1 µl of a 0.5 mM stock solution in DMSO). Protein precipitation was performed using two different methods depending on the compound conditions as indicated in Table 13. • A) 250 µl of acetonitrile containing 1% trifluoroacetic acid was added. […]
as §1
Additionally, recovery was determined by spiking a pure plasma sample that only contained the internal standard after treatment with a certain amount of the compound.
Carry-over was evaluated by analysis of a blank sample (20% acetonitrile) after the highest calibration sample.
The result is stated as "% intact compound remaining after 6 h incubation" and means that from the amount of material at the start of the experiment the stated percentage is detected as unchanged material at the end of the experiment by LC-MS quantification. […]

SMILES | remaining at 24 h, 10 µM [1] | remaining at 6 h, 9.8 µM [2] | remaining at 6 h, 9.8 µM [3]
CCCCOC(=O)N[C@H]1CSSC[C@@H](C(N)=O)NC(=O)[C@H](CCC)NC(=O)[C@H]([C@@H](C)CC)NC(=O)[C@@H]2C[C@@H](O)CN2C(=O)[C@@H]2C[C@H](F)CN2C(=O)[C@H](Cc2ccccc2)NC(=O)[C@H](Cc2ccc(C(N)=O)cc2)NC(=O)[C@H](CCCNC(=O)CN2CCN(CC(=O)O)CCN(CC(=O)O)CCN(CC(=O)O)CC2)NC(=O)[C@H]([C@@H](C)O)NC1=O [UPAR-276, Butoc-[Cys-Thr-Orn(DOTA)-Pcnf-Phe-4Cfp-Hyp-Ile-Nva-Cys]-NHz] (Butoxycarbonyl-CT[Orn](DOTA)[Phe(4-CONH2)]F[Pro(cis-4-F)][Hyp]I[Nva]C-NH2; disulfide 1-10) | 88% | 89% | > 95%
CC[C@H](C)[C@@H]1NC(=O)[C@@H]2C[C@@H](NC(=O)CN3CCN(CC(=O)O)CCN(CC(=O)O)CCN(CC(=O)O)CC3)CN2C(=O)[C@@H]2CCCN2C(=O)[C@H](Cc2ccccc2)NC(=O)[C@H](Cc2ccc(O)cc2)NC(=O)[C@H](CCC(N)=O)NC(=O)[C@H](CCCNC(N)=O)NC(=O)[C@@H](NC(=O)CCC(C)C)CSSC[C@@H](C(N)=O)NC(=O)[C@H](CC(C)C)NC1=O [UPAR-389, iHex-[Cys-Cit-Gln-Tyr-Phe-Pro-Tap(DOTA)-Ile-Leu-Cys]-NH2] ({Pentanoyl(4-Me)}-C[Cit]QYFP[Pro(trans-4-NH2)](DOTA)ILC-NH2; disulfide 1-10) | > 95% | 95% | –
CCCCC(=O)N[C@H]1CSSC[C@@H](C(N)=O)NC(=O)[C@H](CCC)NC(=O)[C@H]([C@@H](C)CC)NC(=O)[C@@H]2C[C@@H](O)CN2C(=O)[C@@H]2C[C@@H](O)CN2C(=O)[C@H](Cc2ccccc2)NC(=O)[C@H](Cc2ccc(O)cc2)NC(=O)[C@H](CCCCNC(=O)CN2CCN(CC(=O)O)CCN(CC(=O)O)CCN(CC(=O)O)CC2)NC(=O)[C@H](CCCNC(N)=O)NC1=O [UPAR-403, Pent-[Cys-Cit-Lys(DOTA)-Tyr-Phe-Hyp-Hyp-Ile-Nva-Cys]-NH2] (Pentanoyl-C[Cit]K(DOTA)YF[Hyp][Hyp]I[Nva]C-NH2; disulfide 1-10) | 95% | 87% | –
CC[C@H](C)[C@@H]1NC(=O)[C@@H](C)NC(=O)[C@@H]2CCCN2C(=O)[C@H](Cc2ccccc2)NC(=O)[C@H](Cc2ccc(O)cc2)NC(=O)[C@H](CC(=O)O)NC(=O)[C@H](CCCNC(N)=O)NC(=O)[C@@H](NC(=O)CCC(C)C)CSSC[C@@H](C(N)=O)NC(=O)[C@H](CC(C)C)NC1=O [UPAR-434, iHex-[Cys-Cit-Asp-Tyr-Phe-Pro-ala-Ile-Leu-Cys]-NH2] ({Pentanoyl(4-Me)}-C[Cit]DYFP[dA]ILC-NH2; disulfide 1-10) | > 95% | 90% | –
CC[C@H](C)[C@@H]1NC(=O)[C@@H](C)NC(=O)[C@@H]2CCCN2C(=O)[C@H](Cc2ccccc2)NC(=O)[C@H](Cc2ccc(O)cc2)NC(=O)[C@H](CCC(N)=O)NC(=O)[C@H](CCCNC(N)=O)NC(=O)[C@@H](NC(=O)[C@H](CC(C)C)NC(=O)CN2CCN(CC(=O)O)CCN(CC(=O)O)CCN(CC(=O)O)CC2)CSSC[C@@H](C(N)=O)NC(=O)[C@H](CC(C)C)NC1=O [UPAR-441, DOTA-Leu-[Cys-Cit-Gln-Tyr-Phe-Pro-ala-Ile-Leu-Cys]-NH2] ({DOTA}-LC[Cit]QYFP[dA]ILC-NH2; disulfide 2-11) | 61% | 83% | –
